# Measured values published in publication PMC6005348, “Betahistine Treatment in a Cat Model of Vestibular Pathology: Pharmacokinetic and Pharmacodynamic Approaches” (Frontiers in Neurology, 2018).
# System: unilateral vestibular neurectomized cats (UVN)
# Assay: Support surface measurement: recovery of static posture after unilateral vestibular neurectomy
# Format: in vivo, cat
# Settings: for Normalized posture area: DAY 2 of treatment, pre-operative value = 1, control 4.6
# Procedure: We have previously described the surgery for vestibular neurectomy ([35]). “Adult male cats weighing 4–5 kg were anesthetized with ketamine (20 mg/kg, i.m.; Rhône Poulenc, Mérieux, France), received an analgesic (Tolfenamic acid: tolfedine, 0.5 ml, i.m.; Vetoquinol, Lure, France) and were kept at physiological body temperature using a blanket. The vestibular nerve was sectioned on the left-side at the post-ganglion level in order to leave the auditory division intact after mastoidectomy, partial destruction of the bony labyrinth, and surgical exposure of the internal auditory canal. Animals were maintained under antibiotics for 7 days and analgesics for 3 days.”
# One […] group (N = 4: cats 10–13) was submitted to a UVN and received post-operatively a vehicle (placebo group). Two groups of cats were treated with betahistine at the lower dose of 0.2 mg/kg/day (N = 3: cats 14–16) or at the higher dose of 2 mg/kg/day (N = 3: cats 17–19). Another group of cats received the combination of both betahistine at 0.2 mg/kg/day plus selegiline at the dose of 1 mg/kg/day (N = 3: cats 20–22).
# Placebo treatment was pursued until full recovery of posture control in the control group, that is, 40 days on average. The same post-lesion period was investigated in the three experimental groups receiving betahistine or betahistine + selegiline.
# We have described in previous papers how posture deficits and recovery were evaluated ([21]). The surface delimited by the four legs of the cat was measured while standing erect at rest, without walking. “Support surface is considered a good estimate of postural control since it reflects the cat's behavioral adaptation to compensate the static vestibulospinal deficits induced by the vestibular lesion. […] To quantify the support surface, cats were placed in a device with a graduated transparent floor that allowed them to be photographed from underneath. Five repeated measurements were done for each cat tested at each post-operative time, and an average was calculated for each experimental session. The support surface was measured as the surface delimited by the four legs by an image analysis system (Canvas, 9^TM, Deneba software, Miami, FL). Post-lesion data were compared to pre-lesion values by using individual references, each animal being its own control. Recovery of static posture function was assessed by the changes and development of the support surface over time. The recovery was considered as total when the support surface returned to the pre-operative value (unity, i.e., 1).”
# Statistical analysis consisted of an ANOVA to test for changes at the different post-lesion days (2, 4, 6, 10, 15, 20, 25, 30, 35, 40 days) for the support surface in each group of cats. Repeated-measure analysis of variance was used to test (1) the effects of betahistine treatment (controls vs. treated cats), (2) the effects of the betahistine dose (0.2 vs. 2 mg/kg), and (3) the effects of additional selegiline on the lowest betahistine dose (0.2 mg/kg betahistine + 1 mg/kg selegiline).
# ANOVA was followed by post-hoc analysis (Scheffe-test and multicomparison Fisher's test: Statview II software). Results were considered significant at P < 0.05. To distinguish between chronic and early effects of betahistine treatment a Two-way-ANOVA with day and treatment as discriminating factors was performed (GraphPad Prism 5.0). The Cohen's d-value (two means differences/largest standard deviation) was evaluated to test the size effect.
compound,measurement,setting,value
"CNCCc1ccccn1 [Betahistine, betahistine]",Post-lesion day (D+) of complete recovery of posture,"2 mg/kg betahistine group, earlier than controls",10
same,"Cohen's d, control versus treatment (support surface)","Betahistine (0.2 mg), D+2",0.657
same,"Cohen's d, control versus treatment (support surface)","Betahistine (0.2 mg), D+4",3.289
same,"Cohen's d, control versus treatment (support surface)","Betahistine (0.2 mg), D+6",2.510
same,"Cohen's d, control versus treatment (support surface)","Betahistine (0.2 mg), D+10",2.708
same,"Cohen's d, control versus treatment (support surface)","Betahistine (0.2 mg), D+15",4.224
same,"Cohen's d, control versus treatment (support surface)","Betahistine (0.2 mg), D+20",2.064
same,"Cohen's d, control versus treatment (support surface)","Betahistine (0.2 mg), D+25",2.870
same,"Cohen's d, control versus treatment (support surface)","Betahistine (0.2 mg), D+30",5.146
same,"Cohen's d, control versus treatment (support surface)","Betahistine (0.2 mg), D+40",-1.447
same,"Cohen's d, control versus treatment (support surface)","Betahistine (2 mg), D+2",2.662
same,"Cohen's d, control versus treatment (support surface)","Betahistine (2 mg), D+4",3.616
same,"Cohen's d, control versus treatment (support surface)","Betahistine (2 mg), D+6",2.799
same,"Cohen's d, control versus treatment (support surface)","Betahistine (2 mg), D+10",5.398
same,"Cohen's d, control versus treatment (support surface)","Betahistine (2 mg), D+15",7.246
same,"Cohen's d, control versus treatment (support surface)","Betahistine (2 mg), D+20",13.857
same,"Cohen's d, control versus treatment (support surface)","Betahistine (2 mg), D+25",8.478
same,"Cohen's d, control versus treatment (support surface)","Betahistine (2 mg), D+30",6.512
same,"Cohen's d, control versus treatment (support surface)","Betahistine (2 mg), D+40",3.320
same,Normalized posture area,BH 0.2 mg/kg,3.98
same,Normalized posture area,BH 2.0 mg/kg,2.4
same,Difference from controls with respect to complete time of recovery (ANOVA),"betahistine 0.2 mg/kg, P < 0.15",did not significantly differed
same,"Support surface versus untreated cats, Bonferroni post-test","betahistine 0.2 mg/kg, p < 0.01, first week only",significant differences at the particular D+4 and D+6 time delays
same,Complete time of recovery of posture,"betahistine 0.2 mg/kg, same as controls",around 6 weeks
same,Difference from controls with respect to complete time of recovery (ANOVA),"betahistine 2 mg/kg, P < 0.026",differed significantly
